Test results reported in patent US6140509A (priority 1999, dated 2000).
Positions count from the first letter of the chain named. Values belong to the compound of their own block, whether it stands above or below them.

Tests used:
[1] = target: T1, constitutively active mutant human 5HT2C receptor AP-1 (Homo sapiens, UniProt P28335, S310K); test: [35S]GTPγS binding assay, AP-1 membranes; type: biochemical; conditions: 30 μM mianserin, 293T cells, Wallac scintistrips
T1 construct: expressed in transfected cells
T1 sequence (P28335 33-458 S310K): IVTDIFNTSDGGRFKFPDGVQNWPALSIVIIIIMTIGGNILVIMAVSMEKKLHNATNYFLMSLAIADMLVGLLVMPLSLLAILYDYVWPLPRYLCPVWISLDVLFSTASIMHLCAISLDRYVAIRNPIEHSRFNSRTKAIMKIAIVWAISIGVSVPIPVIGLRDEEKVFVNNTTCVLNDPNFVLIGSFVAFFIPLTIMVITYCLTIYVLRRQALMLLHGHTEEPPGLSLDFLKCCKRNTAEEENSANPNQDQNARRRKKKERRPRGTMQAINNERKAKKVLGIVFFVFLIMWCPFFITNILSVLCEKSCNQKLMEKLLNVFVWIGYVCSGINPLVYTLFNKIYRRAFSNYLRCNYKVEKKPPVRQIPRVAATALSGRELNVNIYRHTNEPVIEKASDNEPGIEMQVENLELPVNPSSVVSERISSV

[2] = target: T2, endogenous human 5-HT2C receptor (Homo sapiens, UniProt P28335)
T2 sequence (P28335 33-458): T1 sequence (P28335 33-458 S310K) with K278S

[3] = tested on: human mutated 5HT2A receptor, AP-3; test: Receptor-mediated inositol phosphate (IP3) accumulation, AP-3; type: cell-based; conditions: statement in words
[4] = tested on: Adult male Sprague-Dawley rats; test: Amphetamine-stimulated locomotor activity; type: in vivo
From the text: A 5HT2A receptor antagonist or inverse agonist is expected to decrease amphetamine-stimulated locomotion without affecting baseline locomotion. See, for example, Soresnon, et al, 266(2) J. Pharmacol. Exp. Ther. 684 (1993). […] For the following study, the following parameters and protocol were utilized:
Adult male Sprague-Dawley rats were utilized for these studies. Animals were housed in groups of 2-3 in hanging plastic cages with food and water available at all times. Animals were weighed and handled for at least one day prior to surgery and throughout the studies. For these studies, Vehicle consisted of 90% ethanol (100%) and 10% water.
A San Diego Instruments Flex Field apparatus was used to quantify baseline and amphetamine-stimulated locomotor activity. This apparatus consists of four 16"×16" clear plastic open fields. Photocell arrays (16 in each dimension) interfaced with a personal computer to automatically quantify activity. Several measures of activity can be assessed with the apparatus, including total photocell beam breaks. Animals (vehicle control and Compound treated) were injected s.c. 30 minutes prior to initiation of analysis. Following this 30 minute period, animals were placed individually into an open field and baseline activity was assessed for 30 minutes (habituation phase). […]

[5] = tested on: 5HT2A receptors (cerebral cortex); test: I125-LSD displacement from brain sections, cortex (autoradiography); type: binding, Sprague-Dawley rats; conditions: 1 micromolar compound, 1 nanomolar I125-LSD, 30 minutes, room temperature

inhibition of serotonin-stimulated [35S]GTPγS binding, AP-1 (FIG. 10) [1]: inhibition | inhibition of serotonin-stimulated [35S]GTPγS binding (FIG. 9) ([2]; 30 μM mianserin, COS cells): completely inhibited | inhibition of serotonin-stimulated [35S]GTPγS binding (FIG. 10) ([2]; endogenous human 5-HT2C per text): inhibits this response
SMILES: CN1CCN2c3ccccc3Cc3ccccc3C2C1 (centres unmarked) [mianserin]
inhibition of basal constitutive [35S]GTPγS binding (FIG. 10) ([2]; no agonist, endogenous human 5-HT2C per text): acts as a partial inverse agonist by inhibiting the basal constitutive binding of [^35 S]GTPγS

SMILES: Cn1cc(Br)c(-c2cccc(NC(=O)c3cccs3)c2)n1 [Compound 116102, N-[3-(4-bromo-1-methylpyrazol-3-yl)phenyl][2-thienyl]carboxamide]
inverse agonist activity at the human 5HT2A receptor [3]: potent inverse agonist | amphetamine-stimulated locomotion (photobeam breaks) ([4]; 116102 s.c. 0.1, 1.0, 5.0 mg/kg, d-amphetamine sulfate 1.0 mg/kg): a decrease in the amphetamine-stimulated locomotion | dose-response pattern of locomotor activity ([4]; 116102 s.c. 0.1-10 mg/kg, FIGS. 17A-C): a general "inverted U" shaped pattern was observed

SMILES: COc1ccc(OC(=O)Nc2cccc(-c3nn(C)cc3Br)c2)cc1 [Compound 116100, N-[3-(4-bromo-1-methylpyrazol-3-yl)phenyl][4-methoxyphenoxy]carboxamide]
displacement of I125-LSD from cortex (5HT2A) [5]: appears to selectively displace the I^125 -LSD from the cortex (5HT2A)
